Key:
[1] = molecular target: T1, Indoleamine 2,3-dioxygenase 1 (Homo sapiens, UniProt P14902); test: Binding affinity to recombinant ferrous state of IDO1 (unknown origin) expressed in Escherichia coli assessed as dissociation constant incubated for 30 mins by UV-Visible spectrophotometric method
Target sequence in this assay (P14902 whole entry): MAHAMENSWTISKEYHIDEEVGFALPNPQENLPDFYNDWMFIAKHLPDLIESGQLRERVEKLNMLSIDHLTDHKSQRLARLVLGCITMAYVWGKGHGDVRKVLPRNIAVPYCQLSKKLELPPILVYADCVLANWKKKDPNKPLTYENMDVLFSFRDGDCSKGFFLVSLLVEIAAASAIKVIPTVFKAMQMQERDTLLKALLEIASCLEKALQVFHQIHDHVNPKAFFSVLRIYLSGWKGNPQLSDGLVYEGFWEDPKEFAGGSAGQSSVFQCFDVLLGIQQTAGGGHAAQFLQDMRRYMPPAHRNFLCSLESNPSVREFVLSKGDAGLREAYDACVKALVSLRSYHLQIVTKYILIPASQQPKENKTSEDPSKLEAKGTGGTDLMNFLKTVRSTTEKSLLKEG

[2] = molecular target: T1, Indoleamine 2,3-dioxygenase 1; test: Binding affinity to recombinant ferric state of IDO1 (unknown origin) expressed in Escherichia coli assessed as dissociation constant incubated for 30 mins by UV-Visible spectrophotometric method
Target sequence in this assay (P14902 whole entry): as above

[3] = molecular target: T1, Indoleamine 2,3-dioxygenase 1; test: Inhibition of recombinant IDO1 (unknown origin) expressed in Escherichia coli at 10 uM incubated for 30 mins by methylene blue dye based UV-Visible spectrophotometric method relative to control
Target sequence in this assay (P14902 whole entry, looked up): as the sequence (P14902 whole entry) above

[4] = molecular target: Indoleamine 2,3-dioxygenase 1 (Homo sapiens, UniProt P14902, C129Y); test: Binding affinity to recombinant ferrous state of IDO1 C129Y mutant (unknown origin) expressed in Escherichia coli assessed as dissociation constant incubated for 30 mins by UV-Visible spectrophotometric method
[5] = tested on: Indoleamine 2,3-dioxygenase 1 (Homo sapiens), P14902 [C129Y]; test: Inhibition of recombinant IDO1 C129Y mutant (unknown origin) expressed in Escherichia coli at 10 uM incubated for 30 mins by methylene blue dye based UV-Visible spectrophotometric method relative to control
Indoleamine 2,3-dioxygenase 1 (Homo sapiens), P14902 [C129Y], sequence (P14902 whole entry C129Y): as the sequence (P14902 whole entry) above, with C129Y counted along it

Indoleamine 2,3-dioxygenase 1 (Homo sapiens, UniProt P14902, C129Y), sequence (P14902 whole entry C129Y): as the sequence (P14902 whole entry) above, with C129Y counted along it

Compound | Kd [1] | Kd [2] | inhibition [3] | Kd [4] | inhibition [5]
C[Si](C)(C)c1cccc2[nH]ncc12 | 43 µM | 150 µM | 7.2% |  | 
Cc1cc([Si](C)(C)C)c2cn[nH]c2c1 | 1.7 µM | 2.5 µM | 50% |  | 
OC(Cc1ccccc1)c1cc(Br)cc2[nH]ncc12 (racemic) | 0.14 µM | 0.6 µM | 90% | 2.2 µM | 23%
c1ccc2[nH]ncc2c1 |  |  | 1% |  | 
Cc1cc(C(O)Cc2ccccc2)c2cn[nH]c2c1 (racemic) | 0.47 µM | 1.2 µM | 76% | 27 µM | 18%
C#Cc1cc(C(O)Cc2ccccc2)c2cn[nH]c2c1 (racemic) | 1.3 µM | 7.4 µM | 32% | 94 µM | 12%

Continued, values first:

Kd [1] | Kd [2] | inhibition [3] | Kd [4] | inhibition [5] | Compound
7.9 µM | 31 µM | 13% | 66 µM | 14% | OC(Cc1ccccc1)c1cccc2[nH]ncc12 (racemic)
0.74 µM | 1.1 µM | 70% | 44 µM | 18% | CCc1cc(C(O)Cc2ccccc2)c2cn[nH]c2c1 (racemic)
53 µM |  | 4% |  | 14% | OC(Cc1ccccc1)c1cc(-c2ccccc2)cc2[nH]ncc12 (racemic)
1.2 µM |  | 62% | 28 µM | 20% | OC(Cc1ccccc1)c1cc(C2CC2)cc2[nH]ncc12 (racemic)

Reference: ChEMBL document CHEMBL4396936 (Bioorg Med Chem Lett, 2019)
